# Source: US8962530B2, “Inflammatory bowel disease therapies” (Regents of the University of Colorado, priority 2007, dated 2015)
# How the values were obtained:
# TNBS-induced colitis = assay: Intestinal permeability, Texas Red labeled LPS, TNBS-colitis model; assay type: in vivo; conditions: TNBS-colitis mice; 60 mg/kg i.p.; labeled LPS gavage after 20 hours, serum four hours later; compared to vehicle control
# From the text: The effectiveness of compounds and methods of the present invention on intestinal barrier protection and treatment of inflammatory bowel disease (IBD) in TNBS (2,4,6-trinitrobenzene sulfonic acid)-induced colitis, an established animal model of inflammatory bowel disease, was examined. TNBS-induced colitis was induced in mice using a modification of techniques previously described. (See Morris et al (1989) Gastroenterology 96:795-803; Boirivant et al (1998) J Exp Med 188:1929-1939; Karhausen et al (2004) J Clin Invest 114:1098-1106.) Mice were shaved on the abdomen (causing total depletion of hair and microlesions) and were then sensitized to subsequent treatment by epicutaneous application of 1% TNBS (Sigma-Aldrich) in 100% ethanol on day minus 7. Seven days later, on day 0, animals were sedated with a 2.5% Tribromoethanol solution in phosphate-buffered saline (14 μl/g body weight), followed by intrarectal administration of a 2.5% TNBS solution in 50% ethanol (5 μl/g body weight). Administration of the 2.5% TNBS solution was carried out using an epidural catheter ([…] Plus Epidural Catheter, Arrow International), which was inserted approximately 6 cm ab ano followed by release of the TNBS solution. […] Four hours later, changes in intestinal permeability were determined by measurement of serum Texas Red labeled LPS levels.
# TNFα mRNA = assay: TNFα expression in colonic mucosal scrapings by real-time PCR, TNBS-colitis model; assay type: in vivo; conditions: TNBS-colitis mice; 40 mg/kg i.p. on day minus 1, day 0, day 1; day three; compared to non-treated TNBS-colitis mice; p<0.01
# From the text: The effectiveness of compounds and methods of the present invention on intestinal barrier protection and treatment of inflammatory bowel disease (IBD) in TNBS (2,4,6-trinitrobenzene sulfonic acid)-induced colitis, an established animal model of inflammatory bowel disease, was examined. TNBS-induced colitis was induced in mice using a modification of techniques previously described. (See Morris et al (1989) Gastroenterology 96:795-803; Boirivant et al (1998) J Exp Med 188:1929-1939; Karhausen et al (2004) J Clin Invest 114:1098-1106.)
# Mice were shaved on the abdomen (causing total depletion of hair and microlesions) and were then sensitized to subsequent treatment by epicutaneous application of 1% TNBS (Sigma-Aldrich) in 100% ethanol on day minus 7. Seven days later, on day 0, animals were sedated with a 2.5% Tribromoethanol solution in phosphate-buffered saline (14 μl/g body weight), followed by intrarectal administration of a 2.5% TNBS solution in 50% ethanol (5 μl/g body weight). […]
# Amplification cSycle parameters were as follows: 3 minutes at 95° C.; 40 cycles of 45 seconds at 95° C., 30 seconds at 58° C., 30 seconds at 72° C.; followed by repetitive melting cycles to establish amplification product specificity. Comparison of gene expression in a semi-quantitative manner was performed based on the mathematical model of Pfaffl. […]
compound,measurement,setting,value
"O=C(O)CNC(=O)c1ncc2cc(Sc3ccccc3)ccc2c1O [Compound A, [(4-Hydroxy-7-phenylsulfanyl-isoquinoline-3-carbonyl)-amino]-acetic acid]",serum Texas Red labeled LPS levels (intestinal permeability),TNBS-induced colitis,lower levels of serum Texas Red labeled LPS
same,TNFα mRNA levels in colonic mucosal scrapings,TNFα mRNA,significant decrease
